# Measurements reported in patent publication US20240025849A1 (MAX DELBRÜCK-CENTRUM FÜR MOLEKULARE MEDIZIN IN DER …, priority 2020, published 2024).
# “Also recorded” adds a separate entry of the source.
# Experiments:
# [1] = system: primary cultured neonatal microglia; assay: LPS induced NO release, HTS setup (Griess reagent); format: cell-based; details: Mus musculus, 1 h pre-treatment, 1 μg/ml LPS 48 h, read-out: IC50, LPS-induced production of NO
# Method: Primary cultured neonatal microglia. For preparation of cultured neonatal microglia, P0-P3 mice were used. 10 brains were extracted, meninges and cerebellum were removed and put on ice with Hank's balanced salt solution (HBSS). The dissected brains were washed 3 times before adding 400 μL trypsin (0.1 mg/L) and DNAse (5 μg/L) in phosphate buffered saline (PBS). After 2 min of incubation with this solution, the reaction was blocked by adding plain medium. After removal of the medium, 1 mg DNAse was added and the cells were mechanically dissociated, with a Pasteur pipette followed by a glass pipette. The cells were centrifuged for 10 min at 129 g at 4° C. The supernatant was discarded. The pellet was resuspended in plain medium and plated (2.5 brains/flask) in Poly-L-Lysine coated flasks. […]
# High throughput screening (HTS). […] Incubation with LPS and compounds was continued for 48 hours, followed by addition of 25 μl of 2-fold concentrated Griess reagent and absorbance reading at 540 nm in a plate reader (Safire2, Tecan, Maennedorf, Switzerland). Active compounds were identified by decreased Z-scores of the absorbance signal. […]
# Concentration-dependent validation and viability determination. […] Each concentration was measured in duplicate. […] Finally, the resorufin fluorescence was detected at an excitation wavelength of 530 nm and emission of 570 nm. […]
# [2] = system: primary cultured neonatal microglia; assay: AlamarBlue assay (metabolic activity / cell viability) in microglia; format: cell-based, mouse
# Method: Primary cultured neonatal microglia. For preparation of cultured neonatal microglia, P0-P3 mice were used. 10 brains were extracted, meninges and cerebellum were removed and put on ice with Hank's balanced salt solution (HBSS). The dissected brains were washed 3 times before adding 400 μL trypsin (0.1 mg/L) and DNAse (5 μg/L) in phosphate buffered saline (PBS). After 2 min of incubation with this solution, the reaction was blocked by adding plain medium. After removal of the medium, 1 mg DNAse was added and the cells were mechanically dissociated, with a Pasteur pipette followed by a glass pipette. The cells were centrifuged for 10 min at 129 g at 4° C. The supernatant was discarded. The pellet was resuspended in plain medium and plated (2.5 brains/flask) in Poly-L-Lysine coated flasks. The cells were washed after 2 days with PBS and incubated for another 7 days in plain medium. Afterwards the medium was replaced by plain medium with 33% L929 conditioned medium. After 2 days, cells were harvested by shaking them for 30 min at 150 rpm. The supernatant was centrifuged for 10 min at 129 g at 4° C. The cells were plated into a 96 well plate (100 000 cells/well, 200 μL medium per well). This procedure could be repeated 2 times with a 2 day interval.
# Concentration-dependent validation and viability determination. Concentrated stock solutions of compounds identified from primary screening were rearranged onto anew 384-well plate, and 10 sequential 2-fold serial dilutions were created across multiple plates in DMSO. Starting from these diluted compound mother plates, the protocol was repeated exactly as for primary screening to span the concentration range between 5 μM and 20 nM. In order to obtain the 10 μM and 20 μM concentration points, 1000 n1 and 2000 n1 were transferred from the 500 μM pre-dilution plate, respectively. Each concentration was measured in duplicate. Normalized percent activities were plotted against the compound concentration to obtain the IC50 values. To obtain also information about the impact of compounds on cell viability, a second batch of plates was prepared as described above, but 5 μl of Alamar Blue solution was added after 48 hours instead of Griess reagent and incubation was continued for additional 4 hours at 37° C. Finally, the resorufin fluorescence was detected at an excitation wavelength of 530 nm and emission of 570 nm. Since no control samples were present on the assay plate for data normalization of cell viability, the raw data values were added on the second y-scale to the IC50 plots.
# AlamarBlue assay. […] The conversion of resazurin to resorufin was measured by absorbance (absorbance wavelength of 570 nm and a reference wavelength of 600 nm) after 3 hours.
smiles,measurement,setting,value
COc1ccc(NC(=O)C(NC(=O)C2CCCN2C(=O)OCc2ccccc2)c2ccc(OC)cc2)cc1 (centres unmarked) [C1],IC50,[1],224 nM
same,cell viability,"[2]; 2 nM to 20 μM, 1 μg/ml LPS 48 h",no effects on cell viability
same,metabolic activity,"[2]; 20 μM C1, 1 μg/mL LPS 48 h",84%±3.99
same,metabolic activity in unstimulated microglia,"[2]; C1 alone 0.025, 0.25, 2.5 μM, 48 hours",did not show any significant difference; also recorded: nor did it interfere with the metabolic activity
same,metabolic activity (AlamarBlue),"[2]; HTS setup, LPS stimulated",remained stable
